How the values were obtained:
NK3 receptors = target: T1, NK3 receptors (Homo sapiens, UniProt P29371); test: Antagonism of IP1 in HEK293 cells with stable expression of NK3; assay type: cell-based; conditions: agonist Senktide 3 nM, read-out: NK3R IC50 (nM) IP1
T1 construct: expressed in transfected cells
T1 sequence (P29371 1-465): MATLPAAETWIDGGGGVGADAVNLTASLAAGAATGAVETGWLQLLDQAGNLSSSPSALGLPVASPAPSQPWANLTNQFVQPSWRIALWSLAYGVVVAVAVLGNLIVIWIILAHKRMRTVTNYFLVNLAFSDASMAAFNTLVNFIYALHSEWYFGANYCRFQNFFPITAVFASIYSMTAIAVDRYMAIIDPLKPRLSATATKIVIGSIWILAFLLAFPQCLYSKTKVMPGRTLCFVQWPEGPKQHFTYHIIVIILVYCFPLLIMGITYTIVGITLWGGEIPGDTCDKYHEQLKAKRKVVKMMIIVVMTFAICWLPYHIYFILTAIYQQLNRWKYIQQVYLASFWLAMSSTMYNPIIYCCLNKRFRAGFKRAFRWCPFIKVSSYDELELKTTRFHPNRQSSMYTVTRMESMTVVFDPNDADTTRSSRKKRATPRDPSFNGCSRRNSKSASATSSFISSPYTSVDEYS

[1] = tested on: luteinizing hormone (LH) content in plasma; test: Luteinizing hormone (LH) content in plasma of bilateral ovariectomy (OVX) rats; assay type: in vivo; conditions: oral 30 mg/kg, plasma LH 0-8 h
From the text: Test Example 5. Effect of the Compounds of the Present Invention on Luteindzing Hormone (LH) Content in Plasma of Bilateral Ovariectomy (OVX) Rats
The objective of this test example was to determine the effect of the compounds on luteinizing hormone (LH) in plasma of bilateral ovarnectomy (OVX) rats.
10-Week-old female bilateral ovariectomy SD rats were purchased from Beijing Vital River Laboratory Animal Technology Co., Ltd. The animals were housed in a SPF grade animal facility with 5 SD rats per cage. The cages, bedding, feed and water were disinfected at high temperatures before use. All animals had free access to food and water.
Drug administration by groups: 10-Week-old female SD rats were subjected to bilateral ovariectomy and used in experiments after 3 weeks. Each SD rat was fasted overnight before the experiment, and then randomly divided into groups (3 rats per group) before the drug administration. Different test compounds were administered orally to each drug administration group at a dose of 30 mg/kg and a volume of 10 mL/kg.
Sample collection: 0.2-0.3 mL of whole blood of the SD rats in each group was collected at 0, 0.5, 1, 2, 4, 8 hours before and after the drug administration, and placed in EDTA-K2 tubes. The tubes were inverted and mixed well, and centrifuged at 4° C. at 5,000 rpm for 5 min. Then the plasma was separated and stored in an ultra-low temperature freezer (−80±10° C.).
Sample detection: All reagents, samples and ELISA plates were equilibrated at room temperature (20-25° C.) for at least 30 min. The sample was thawed, vortexed and centrifuged for use. The standard curve was prepared with Assay buffer C according to the concentration sequence of 10, 5, 2.5, 1.25, 0.625, 0.313 and 0. The sample was diluted by two folds with Sample dilution buffer G and left to stand at room temperature for 10 min. […] The OD values of each well was read at a wavelength of 450 nm with a microplate reader.
The standard curve was plotted by using Graphpad, and the concentration of the sample was calculated. […]

C[C@@H]1c2nnc(-c3nc4cnc(Cl)cc4s3)n2CCN1C(=O)c1ccc(F)cc1 [Example 37, (R)-(3-(6-Chlorothiazolo[4,5-c]pyridin-2-yl)-8-methyl-5,6-dihydro-[1,2,4]triazolo[4,3-a]pyrazin-7(8H)-yl)(4-fluorophenyl)methanone]
IC50 (NK3 receptors): 56.5 nM
ΣAUC(ΔLH/LH · h, Mean ± SD) [1]: −0.52 ± 2.24 ΔLH/LH · h

[2H]c1cc(C(=O)N2CCn3c(-c4nc(Cl)ns4)nnc3[C@H]2C)ccc1F [Example 56, (R)-(3-(3-Chloro-1,2,4-thiadiazol-5-yl)-8-methyl-5,6-dihydro-[1,2,4]triazolo[4,3-a]pyrazin-7(8H)-yl)(4-fluorophenyl-3-d)methanone]
IC50 (NK3 receptors): 76 nM

Source: patent US20230271969A1, “NITROGEN-CONTAINING FUSED RING DERIVATIVE INHIBITOR, PREPARATION METHOD THEREFOR AND USE THEREOF” (Shanghai Hansoh Biomedical Co., Ltd., priority 2020, published 2023)
